Patent US8513264B2, “Combination therapy for the treatment of diabetes and related conditions” (Boehringer Ingelheim International GmbH, priority 2008, dated 2013)

Assays:
[1] = system: Zucker Diabetic Fatty (ZDF) rats (ZDF/Crl-Lepr^fa); test: Oral glucose tolerance test in overnight fasted 9-weeks old male ZDF rats; type: in vivo, rat; conditions: 9-weeks old ZDF rats; single oral dose 3 mg/kg 30 min before glucose load 2 g/kg; versus vehicle control
Experimental: (§1) According to a first example an oral glucose tolerance test is performed in overnight fasted 9-weeks old male Zucker Diabetic Fatty (ZDF) rats (ZDF/Crl-Lepr^fa). A pre-dose blood sample is obtained by tail bleed. Blood glucose is measured with a glucometer, and the animals are randomized for blood glucose (n=5/group). […] The animals receive an oral glucose load (2 g/kg) 30 min after compound administration. Blood glucose is measured in tail blood 15 min, 30 min, 60 min, and 90 min after the glucose challenge. Glucose excursion is quantified by calculating the reactive glucose AUC. The data are presented as mean±SEM. The two-sided unpaired Student t-test is used for statistical comparison of the control group and the active groups as well as between active groups.

[2] = system: Zucker Diabetic Fatty (ZDF) rats (ZDF/Crl-Lepr^fa); test: Oral glucose tolerance test in overnight fasted 15-weeks old male ZDF rats (highly insulin-resistant model); type: in vivo, rat; conditions: 15-weeks old ZDF rats; single oral dose 3 mg/kg 30 min before glucose load 2 g/kg; versus vehicle control
Experimental: as §1, with “to a second example an” for “to a first example an”, “overnight fasted 15-weeks old male” for “overnight fasted 9-weeks old male”, “rats (ZDF/Crl-Lepr^fa). This aged ZDF rats serve as a highly insulin-resistant animal model. A pre-dose” for “rats (ZDF/Crl-Lepr^fa). A pre-dose”, “tail blood 30 min,” for “tail blood 15 min, 30 min,”, “60 min, 90 min, 120 min, and 180” for “60 min, and 90”, “min, and 180 min after” for “min, and 90 min after”

[3] = Excretion route at therapeutic oral dose levels; type: in vivo; conditions: mainly excreted via the liver

excretion via the kidney [3]: < 7 % of the administered oral dose
SMILES: CC#CCn1c(N2CCC[C@@H](N)C2)nc2c1c(=O)n(Cc1nc(C)c3ccccc3n1)c(=O)n2C [Cpd. A, 1-[(4-methyl-quinazolin-2-yl)methyl]-3-methyl-7-(2-butyn-1-yl)-8-(3-(R)-amino-piperidin-1-yl)-xanthine]
reduction of glucose excursion (reactive glucose AUC) [1]: 49%
reduction of glucose excursion (reactive glucose AUC) [2]: 1%
